Experiments:
[1] = molecular target: T1, bovine lens aldose reductase (Bos taurus, UniProt P16116); assay: In vitro Inhibition of Aldose Reductase in the Bovine Lens; format: biochemical; details: DL-glyceraldehyde as substrate; for inhibition at 0.04 µM: dose 4 × 10^-8 M; for inhibition at 0.1 µM: dose 10^-7 M
T1 construct: preparation of the enzyme from bovine lens; from tissue; host or cells: bovine lens
Description: I. In vitro Inhibition of Aldose Reductase in the Bovine Lens
The aldose reductase inhibiting effects of the compounds of formula I were tested by employing an in vitro testing procedure similar to that described by S. Hayman and J. H. Kinoshita, J. Biol. Chem., 240, 877 (1965) wherein the abilitty of the invention compounds to inhibit bovine lens aldose reductase with DL-glyceraldehyde as the substrate was determined. In the present case the procedure of Hayman and Kinoshita was modified in that the final chromatography step was omitted in the preparation of the enzyme from bovine lens.

[2] = system: diabetic db/db mice; assay: Determination of Blood Glucose Lowering in Diabetic db/db Mice; format: in vivo, male diabetic db/db (C57BL/KsJ) mice; details: p.o.; for plasma glucose lowering compared with ciglitazone / % Change glucose: 100 mg/kg; for plasma glucose lowering compared with ciglitazone: in words; for % Change glucose: plasma glucose Day 4 (mean of 2 and 4 hr samples) vs Day 1 baseline
Description: 2. Determination of Blood Glucose Lowering in Diabetic db/db Mice. On the morning of Day 1, 35 mice [male diabetic db/db (C57BL/KsJ) mice (Jackson Laboratories), 2-7 months of age and 50-70 g] were fasted for 4 hours, weighed and a baseline blood sample (15-30 μl) was collected from the tail-tip of each mouse without anesthesia, and placed directly into a fluoride-containing tube, mixed and maintained on ice. Food was then returned to the mice. The plasma was separated and levels of glucose in plasma determined by the Abbott VP Analyzer. Because of the variable plasma glucose levels of the db/db mice, 5 mice having the most extreme (i.e., highest or lowest) plasma glucose levels were excluded and the remaining 30 mice were randomly assigned into 7 groups of equivalent mean plasma glucose levels (N=6 for vehicle and N=4 for each drug group). On the afternoon of Days 1, 2 and 3, the vehicle, control or test drugs were administered (p.o.) to the ad libitum fed mice. On the morning of Day 4, the mice were weighed and food removed, but water was available ad libitum. Three hours later, a blood sample was collected and then the mice were given the fourth administration of drug or vehicle. Blood samples were collected again from the unanesthetized mice at 2 and 4 hours after drug administration. The plasma was separated and levels of glucose in plasma was determined by the Abbott VP Analyzer. For each mouse, the percent change of its plasma glucose level on Day 4 (mean of the 2 and 4 hr samples) from respective level before drug administration (Day 1 baseline sample) is determined as follows: [formula] Analysis of variance followed by Dunnett's multiple comparison (one-sided) will be used to estimate the 'degree of statistical significance of the difference between the vehicle control group and the individual drug-treated groups. A drug will be considered active, at the specific dosage administered, if the difference of the plasma glucose level has a p<0.05.

[3] = system: ob/ob mice; assay: Determination of Blood Glucose Lowering Effect in ob/ob mice; format: in vivo, ob/ob mice (C57B1/6J); details: 100 mg/kg, p.o.
Description: 3. Determination of Blood Glucose Lowering Effect in ob/ob mice
Male or female ob/ob mice (C57B1/6J), ages 2 to 5 months (10 to 65 g), of a similar age are randomized according to plasma glucose into 4 groups of 10 mice. The mice are housed 5 per cage and are maintained on normal rodent chow with water ad libitum. The mice receive test compound daily. The test compound is suspended in 0.5 mL of 0.5% methyl cellulose and is administered by gavage (dissolved in drinking water) or admixed in the diet. The dose of compound given ranges from 2.5 to 200 mg/kg/day. Body weight of fed animals is measured at the beginning of each week and doses for the entire week are calculated using this weight and are expressed in terms of the active moiety of the compound. Control mice receive vehicle only.
On the morning of Days 4, 7 or 14 two drops of blood (approximately 50 μl) are collected into sodium fluoride containing tubes either from the tail vein or after decapitation. […] The plasma is isolated by centrifugation and the concentration of glucose is measured enzymatically on an Abbott V. P. Analyzer and the plasma concentration of insulin is determined by radioimmunoassay (Heding, 1972). For each mouse, the percentage change in plasma glucose on Day 4, 7 or 14 is calculated relative to the mean plasma glucose of the vehicle treated mice. […]

Cc1c(Cl)c(OCC(=O)O)c(Cc2ccc3c(Cl)cccc3c2)c(O)c1C=O [Example 1, [2-chloro-6-(5-chloro-naphthalen-2-ylmethyl)-4-formyl-5-hydroxy-3-methyl-phenoxy]-acetic acid]
inhibition at 0.04 µM [1]: 49%
plasma glucose lowering compared with ciglitazone [2]: comparable with the results for ciglitazone
% Change glucose [2]: -19%
% Change glucose ([3]; plasma glucose on Day 4, 7 or 14 relative to vehicle mean): -24%
% Change insulin ([3]; plasma insulin by radioimmunoassay, Day 4, 7 or 14): -38%

O=Cc1ccc(OCC(=O)O)c(Cc2ccc3ccccc3c2)c1O [Example 2, (4-formyl-3-hydroxy-2-naphthalen-2-ylmethyl-phenoxy)-acetic acid]
inhibition at 0.1 µM [1]: 34%
plasma glucose lowering compared with ciglitazone [2]: comparable with the results for ciglitazone
% Change glucose [2]: -23%

O=Cc1ccc(OCC(=O)O)c(Cc2cccc3ccccc23)c1O [Example 3, (4-formyl-3-hydroxy-2-naphthalen-1-ylmethyl-phenoxy)-acetic acid]
inhibition at 1 µM ([1]; dose 10^-6 M): 53%

O=Cc1ccc(OCC(=O)O)c(Cc2ccc3c(Cl)cccc3c2)c1O [Example 4, [2-(5-chloro-naphthalen-2-ylmethyl)-4-formyl-3-hydroxy-phenoxy]-acetic acid]
inhibition at 0.04 µM [1]: 78%

O=Cc1ccc(OCC(=O)O)c(Cc2ccc3c(Br)cccc3c2)c1O [Example 5, [2-(5-bromo-naphthalen-2-ylmethyl)-4-formyl-3-hydroxy-phenoxy]-acetic acid]
inhibition at 0.04 µM [1]: 84%

O=Cc1ccc(OCC(=O)O)c(Cc2ccc3ccccc3c2Br)c1O [Example 6, [2-(1-bromo-naphthalen-2-ylmethyl)-4-formyl-3-hydroxy-phenoxy]-acetic acid]
inhibition at 0.04 µM [1]: 78%

COc1c(C=O)ccc(OCC(=O)O)c1Cc1ccc2c(Cl)cccc2c1 [Example 7, [2-(5-chloro-naphthalen-2-ylmethyl)-4-formyl-3-methoxy-phenoxy]-acetic acid]
inhibition at 0.04 µM [1]: 83%

COc1cc(OCC(=O)O)c(Cc2ccc3c(Cl)cccc3c2)c(O)c1C=O [Example 8, [2-(5-chloro-naphthalen-2-ylmethyl)-4-formyl-3-hydroxy-5-methoxy-phenoxy]-acetic acid]
inhibition at 0.04 µM [1]: 81%

Cc1cc(OCC(=O)O)c(Cc2ccc3c(Cl)cccc3c2)c(O)c1C=O [Example 9, [2-(5-chloro-naphthalen-2-ylmethyl)-4-formyl-3-hydroxy-5-methyl-phenoxy]-acetic acid]
inhibition at 0.04 µM [1]: 89%

O=Cc1cc(Cl)c(OCC(=O)O)c(Cc2ccc3c(Cl)cccc3c2)c1O [Example 10, [6-chloro-2-(5-chloro-naphthalen-2-ylmethyl)-4-formyl-3-hydroxy-phenoxy]-acetic acid]
inhibition at 0.1 µM [1]: 36%

CC1(COc2ccc(CC3SC(=O)NC3=O)cc2)CCCCC1 (stereo not drawn) [ciglitazone, reference compound]
decrease in plasma glucose levels (average) ([2]; positive control, 100 mg/kg/day × 4 days, average): 26%
decrease in plasma glucose levels ([2]; positive control, 100 mg/kg/day × 4 days, range): 18 to 34%
